≈ marks a conversion by molar mass, not a printed value. Like-named read-outs stand apart in the source and are kept apart here.
Key:
[1] = Equilibrium solubility at pH 6.8; conditions: phosphate buffered saline, 37 °C, pH 6.8, aqueous buffer, thermodynamic from solid
In short: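 Concentrations in solution were read by compound-specific isocratic HPLC calibrated with 30–90 mg/L external standards, after 5 min homogenization and 24 h shaking at 1200 RPM, 37 °C.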

[2] = test system: S. alachua RDK 030c (QA-1482/04); test: MIC broth microdilution, S. alachua; format: cell-based; conditions: Salmonella; read-out: MIC S. alachua RDK 030c (QA-1482/04)
In short: (§1)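 MIC taken by eye as the lowest compound dilution with no turbidity. Inoculum 10^5 CFU/mL (final) in cation-adjusted MH broth with TES; 18–20 h, 35 °C. Mycobacteria were grown in Middelbrook 7H9 with 5% OADC for at least 10 days. Tetracycline control on each plate.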

[3] = test system: MRSA; test: MIC broth microdilution, MRSA; format: cell-based, methicillin-resistant S. aureus; conditions: Staphylococcus aureus, read-out: MIC MRSA
In short: as §1

[4] = PAMPA permeability; conditions: for Papp at 4 h: PAMPA
In short: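 Compounds measured by HPLC (isocratic, compound-specific methods) after 4-h incubation at 37 °C across a three-layer artificial membrane into pH 7.4 PBS acceptor. Permeability derived from donor and acceptor peak areas, using diluted starting donor solution as external standard.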

[5] = test system: M. avium; test: MIC, M. avium; format: cell-based; conditions: Mycobacterium avium; read-out: MIC M. avium
In short: as §1

[6] = test system: A. baumannii 8C6 (GES-14); test: MIC broth microdilution, A. baumannii; format: cell-based; conditions: Acinetobacter baumannii; read-out: MIC A. baumannii 8C6 (GES-14)
In short: as §1

[7] = test system: MRSA (QA-11.6); test: MIC broth microdilution, MRSA QA-11.6; format: cell-based, methicillin-resistant S. aureus; conditions: Staphylococcus aureus, resistant to cefoxitin, gentamicin, sulfamethoxazole, tetracycline, read-out: MIC MRSA (QA-11.6)
In short: as §1

[8] = biological target: T1, E. coli DNA gyrase (Escherichia coli, UniProt P0AES4); test: Gyrase Supercoiling High Throughput Plate assay, E. coli; format: biochemical; conditions: for LE DNA Gyrase E. coli: LE = (1.37/HA) × pIC50
T1 construct: purchased Inspiralis (Norwich, UK)
In short: (§2)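 Inspiralis gyrase supercoiling plate assay: biotinylated oligonucleotide immobilized in wells, reactions stopped with TF buffer (50 mM NaOAc pH 4.7, 50 mM NaCl, 50 mM MgCl2) for 30 min triplex formation with supercoiled plasmid. Bound DNA stained with Diamond dye in T10 buffer; IC50 is mean of two to four independent measurements.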

[9] = test system: P. aeruginosa RDK 184 (DSM 939); test: MIC broth microdilution, P. aeruginosa; format: cell-based; conditions: Pseudomonas aeruginosa, DSM939; read-out: MIC P. aeruginosa RDK 184 (DSM 939)
In short: as §1

[10] = biological target: T2, S. aureus DNA gyrase (Staphylococcus aureus, UniProt P20831); test: biochemical; format: biochemical; conditions: for LE DNA Gyrase S. aureus: LE = (1.37/HA) × pIC50; for IC50: fluorescence plate supercoiling assay, mean of two to four measurements
T2 construct: purchased Inspiralis (Norwich, UK)
In short: as §2

[11] = test system: S. agalactiae RDK 047 (QA-990/02); test: MIC broth microdilution, S. agalactiae; format: cell-based; conditions: Streptococcus agalactiae; read-out: MIC S. agalactiae RDK 047 (QA-990/02)
In short: as §1

[12] = test system: E. coli (QA-11.3); test: MIC broth microdilution, E. coli QA-11.3; format: cell-based; conditions: Escherichia coli, 20 h; read-out: MIC E. coli (QA-11.3)
In short: as §1

[13] = test system: C. jejuni RDK 135 (ATCC 33560); test: MIC broth microdilution, C. jejuni; format: cell-based; conditions: Campylobacter jejuni, ATCC33560; read-out: MIC C. jejuni RDK 135 (ATCC 33560)
In short: as §1

[14] = test system: E. coli D22; test: MIC broth microdilution, E. coli D22; format: cell-based; conditions: Escherichia coli, D22; mutation in the lpxC gene that increases membrane permeability; read-out: MIC E. coli D22
In short: as §1

[15] = test system: MRSA (QA-11.7); test: MIC broth microdilution, MRSA QA-11.7; format: cell-based, methicillin-resistant S. aureus; conditions: Staphylococcus aureus, 20 h, read-out: MIC MRSA (QA-11.7)
In short: as §1

[16] = test system: S. pneumoniae (QA-10/02); test: MIC broth microdilution, S. pneumoniae; format: cell-based; conditions: Streptococcus pneumoniae
In short: as §1

[17] = test system: E. faecalis DRK 057 (ATCC 29212); test: MIC broth microdilution, E. faecalis; format: cell-based; conditions: Enterococcus faecalis, ATCC29212; read-out: MIC E. faecalis DRK 057 (ATCC 29212)
In short: as §1

[18] = test system: E. coli N43 (CGSC# 5583); test: MIC broth microdilution, E. coli N43; format: cell-based; conditions: Escherichia coli
In short: as §1

[19] = test system: M. smegmatis; test: MIC, M. smegmatis; format: cell-based, Mycobacterium smegmatis; conditions: Mycolicibacterium smegmatis; read-out: MIC M. smegmatis
In short: as §1

[20] = read-out: E. coli N43 MIC in molar
[21] = read-out: MIC E. coli N43 (CGSC# 5583)

T2 sequence (P20831 whole entry): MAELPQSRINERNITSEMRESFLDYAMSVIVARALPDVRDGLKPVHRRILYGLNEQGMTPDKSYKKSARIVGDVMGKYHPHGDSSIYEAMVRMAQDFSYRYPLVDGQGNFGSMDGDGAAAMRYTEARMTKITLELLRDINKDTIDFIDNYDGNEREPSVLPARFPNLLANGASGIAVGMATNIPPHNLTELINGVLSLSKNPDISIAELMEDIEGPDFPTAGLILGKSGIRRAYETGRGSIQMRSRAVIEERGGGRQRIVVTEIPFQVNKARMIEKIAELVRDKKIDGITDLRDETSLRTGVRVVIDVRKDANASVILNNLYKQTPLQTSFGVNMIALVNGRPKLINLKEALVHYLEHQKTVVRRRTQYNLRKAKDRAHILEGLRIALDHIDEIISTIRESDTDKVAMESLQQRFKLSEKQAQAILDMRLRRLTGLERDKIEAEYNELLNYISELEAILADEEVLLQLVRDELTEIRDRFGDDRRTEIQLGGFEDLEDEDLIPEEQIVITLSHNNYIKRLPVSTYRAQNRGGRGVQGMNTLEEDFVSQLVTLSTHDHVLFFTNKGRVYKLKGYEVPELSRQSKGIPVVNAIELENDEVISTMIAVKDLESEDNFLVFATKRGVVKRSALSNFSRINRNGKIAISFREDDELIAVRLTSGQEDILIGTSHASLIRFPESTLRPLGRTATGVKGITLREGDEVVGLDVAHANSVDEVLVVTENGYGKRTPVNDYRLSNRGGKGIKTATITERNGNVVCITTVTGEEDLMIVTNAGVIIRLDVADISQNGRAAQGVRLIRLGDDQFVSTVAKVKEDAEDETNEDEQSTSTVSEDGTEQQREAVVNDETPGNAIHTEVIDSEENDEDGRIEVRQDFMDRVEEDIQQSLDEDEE
T2 sequence (P0A0K8 whole entry partner): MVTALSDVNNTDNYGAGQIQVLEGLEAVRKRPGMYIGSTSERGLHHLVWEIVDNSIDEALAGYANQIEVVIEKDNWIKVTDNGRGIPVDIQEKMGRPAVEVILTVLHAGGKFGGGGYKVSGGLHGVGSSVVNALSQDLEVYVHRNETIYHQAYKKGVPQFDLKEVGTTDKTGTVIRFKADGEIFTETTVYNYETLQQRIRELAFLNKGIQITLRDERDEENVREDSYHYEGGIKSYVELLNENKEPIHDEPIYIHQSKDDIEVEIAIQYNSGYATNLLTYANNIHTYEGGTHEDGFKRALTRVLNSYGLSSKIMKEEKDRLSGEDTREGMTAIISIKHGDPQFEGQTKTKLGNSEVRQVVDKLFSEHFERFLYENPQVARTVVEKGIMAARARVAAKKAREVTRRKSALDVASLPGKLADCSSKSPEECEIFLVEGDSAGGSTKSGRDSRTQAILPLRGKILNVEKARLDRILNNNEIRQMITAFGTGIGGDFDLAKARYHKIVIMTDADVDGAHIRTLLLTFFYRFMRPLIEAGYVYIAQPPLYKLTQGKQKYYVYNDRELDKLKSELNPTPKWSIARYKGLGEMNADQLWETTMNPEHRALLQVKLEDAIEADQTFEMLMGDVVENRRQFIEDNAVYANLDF
T1 sequence (P0AES4 whole entry): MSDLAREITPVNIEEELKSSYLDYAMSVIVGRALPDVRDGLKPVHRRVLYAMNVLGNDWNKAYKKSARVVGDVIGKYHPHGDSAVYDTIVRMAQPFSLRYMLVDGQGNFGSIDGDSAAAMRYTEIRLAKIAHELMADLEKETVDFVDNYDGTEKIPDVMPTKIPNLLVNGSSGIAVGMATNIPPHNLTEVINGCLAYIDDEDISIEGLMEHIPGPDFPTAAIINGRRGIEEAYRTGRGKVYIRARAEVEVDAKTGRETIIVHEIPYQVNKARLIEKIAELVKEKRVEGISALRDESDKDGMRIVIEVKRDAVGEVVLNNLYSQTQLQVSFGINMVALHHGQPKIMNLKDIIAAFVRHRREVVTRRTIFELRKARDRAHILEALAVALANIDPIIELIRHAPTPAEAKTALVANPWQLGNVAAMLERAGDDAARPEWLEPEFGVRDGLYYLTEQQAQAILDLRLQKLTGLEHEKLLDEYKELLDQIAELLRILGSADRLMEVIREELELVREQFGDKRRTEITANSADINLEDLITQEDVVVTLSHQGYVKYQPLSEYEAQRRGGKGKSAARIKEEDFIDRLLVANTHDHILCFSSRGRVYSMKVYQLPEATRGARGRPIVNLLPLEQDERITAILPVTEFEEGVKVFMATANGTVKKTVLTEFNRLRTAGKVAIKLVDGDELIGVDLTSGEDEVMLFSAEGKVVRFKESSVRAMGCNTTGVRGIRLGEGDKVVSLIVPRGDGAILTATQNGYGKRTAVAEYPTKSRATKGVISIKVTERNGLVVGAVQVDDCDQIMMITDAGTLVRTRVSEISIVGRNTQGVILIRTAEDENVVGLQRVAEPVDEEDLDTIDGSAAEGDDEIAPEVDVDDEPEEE

| SMILES | solubility thermodynamic at 24 h [1] | MIC [2] | MIC [3] | Papp at 4 h ([4]; pH 7.4) | MIC [5] | MIC [6] | MIC [7] | IC50 [8] | MIC [9] | LE DNA Gyrase S. aureus [10] | IC50 [10] | MIC [11] | MIC [12] | MIC [13] | MIC [14] | MIC [15] | MIC [16] | MIC [17] | MIC [18, 20] | MIC [18, 21] | also measured |
| --- | --- | --- | --- | --- | --- | --- | --- | --- | --- | --- | --- | --- | --- | --- | --- | --- | --- | --- | --- | --- | --- |
| COc1ccc2nccc(CCN3CCC(NCc4ccc(C(N)=O)cc4)CC3)c2n1 [Compound 17] | 0.56 mg/mL (≈ 1330 µM) | > 128 mg/L | 4 mg/L (≈ 9.53 µM) | 3.1 nm/s | 128 mg/L (≈ 305 µM) | 128 mg/L (≈ 305 µM) | 4 mg/L (≈ 9.53 µM) | > 100 µM | > 128 mg/L | 0.25 | 1.82 ± 0.11 µM | > 128 mg/L | 128 mg/L (≈ 305 µM) | 128 mg/L (≈ 305 µM) | 128 mg/L (≈ 305 µM) | 4 mg/L (≈ 9.53 µM) | 16 mg/L (≈ 38.1 µM) | 128 mg/L (≈ 305 µM) | 38.1 µM | 16 mg/L | PAMPA permeability classification [low/high] ([4]; relative to reference drugs): low; MIC [19]: 16 mg/L (≈ 38.1 µM) |
| COc1ccc2nccc(CCN3CCC(NCc4ccc(OC(F)F)c(OC)c4)CC3)c2n1 [Compound 19, N-(4-(Difluoromethoxy)-3-methoxybenzyl)-1-(2-(6-methoxy-1,5-naphthyridin-4-yl)ethyl)piperidin-4-amine] | 0.079 mg/mL (≈ 167 µM) | 128 mg/L (≈ 271 µM) | 2 mg/L (≈ 4.23 µM) | 90 nm/s | 128 mg/L (≈ 271 µM) | 8 mg/L (≈ 16.9 µM) | 2 mg/L (≈ 4.23 µM) | 3.9 ± 0.06 µM | > 128 mg/L | 0.26 | 0.35 ± 0.03 µM | < 1 mg/L | 4 mg/L (≈ 8.46 µM) | 2 mg/L (≈ 4.23 µM) | 16 mg/L (≈ 33.9 µM) | 2 mg/L (≈ 4.23 µM) | 2 mg/L (≈ 4.23 µM) | 16 mg/L (≈ 33.9 µM) | 2.12 µM | 1 mg/L | Papp at 4 h [4]: > 27 nm/s; LE DNA Gyrase E. coli [8]: 0.22; MIC [19]: 4 mg/L (≈ 8.46 µM) |
| COc1ccc2nccc(CCN3CCC(NCc4ccc(OC(F)F)c(O)c4)CC3)c2n1 [Compound 20, 2-(Difluoromethoxy)-5-((1-(2-(6-methoxy-1,5-naphthyridin-4-yl)ethyl)piperidin-4-ylamino)methyl)phenol] | 0.103 mg/mL (≈ 225 µM) | 64 mg/L (≈ 140 µM) | 1 mg/L (≈ 2.18 µM) | 30 nm/s | 128 mg/L (≈ 279 µM) | 4 mg/L (≈ 8.72 µM) | 1 mg/L (≈ 2.18 µM) | 4.41 ± 0.16 µM | > 128 mg/L | 0.27 | 0.33 ± 0.02 µM | 2 mg/L (≈ 4.36 µM) | 1 mg/L (≈ 2.18 µM) | 0.015 mg/L (≈ 0.0327 µM) | 2 mg/L (≈ 4.36 µM) | 0.5 mg/L (≈ 1.09 µM) | 1 mg/L (≈ 2.18 µM) | 4 mg/L (≈ 8.72 µM) | 1.09 µM | 0.5 mg/L | Papp at 4 h [4]: > 27 nm/s; LE DNA Gyrase E. coli [8]: 0.22; MIC [19]: 0.5 mg/L (≈ 1.09 µM) |
| COc1ccc2nccc(CCN3CCC(NCc4ccc(C(F)(F)F)nc4)CC3)c2n1 [Compound 21, 1-(2-(6-Methoxy-1,5-naphthyridin-4-yl)ethyl)-N-((6-(trifluoromethyl)pyridin-3-yl)methyl)piperidin-4-amine] | 0.209 mg/mL (≈ 469 µM) | 128 mg/L (≈ 287 µM) | 0.5 mg/L (≈ 1.12 µM) | 83 nm/s | 4 mg/L (≈ 8.98 µM) | 16 mg/L (≈ 35.9 µM) | 0.5 mg/L (≈ 1.12 µM) | 6.91 ± 1.62 µM | > 128 mg/L | 0.29 | 0.16 ± 0.02 µM | 4 mg/L (≈ 8.98 µM) | 8 mg/L (≈ 18 µM) | 128 mg/L (≈ 287 µM) | 4 mg/L (≈ 8.98 µM) | 1 mg/L (≈ 2.24 µM) | 1 mg/L (≈ 2.24 µM) | 2 mg/L (≈ 4.49 µM) | 2.25 µM | 1 mg/L | Papp at 4 h [4]: > 27 nm/s; LE DNA Gyrase E. coli [8]: 0.22; MIC [19]: 0.25 mg/L (≈ 0.561 µM) |
| COc1ccc(CNC2CCN(CCc3ccnc4ccc(OC)nc34)CC2)cn1 [Compound 22, 1-(2-(6-Methoxy-1,5-naphthyridin-4-yl)ethyl)-N-((6-methoxypyridin-3-yl)methyl)piperidin-4-amine] | 1.46 mg/mL (≈ 3580 µM) | 64 mg/L (≈ 157 µM) | 1 mg/L (≈ 2.45 µM) | 82 nm/s | > 128 mg/L | 4 mg/L (≈ 9.82 µM) | 2 mg/L (≈ 4.91 µM) | 7.24 ± 0.34 µM | > 128 mg/L | 0.30 | 0.34 ± 0.05 µM | 1 mg/L (≈ 2.45 µM) | 4 mg/L (≈ 9.82 µM) | 2 mg/L (≈ 4.91 µM) | 4 mg/L (≈ 9.82 µM) | 1 mg/L (≈ 2.45 µM) | 1 mg/L (≈ 2.45 µM) | 2 mg/L (≈ 4.91 µM) | 2.38 µM | 1 mg/L | Papp at 4 h [4]: > 27 nm/s; LE DNA Gyrase E. coli [8]: 0.23; MIC [19]: 16 mg/L (≈ 39.3 µM) |

— paper PMC8300687, “A Fine-Tuned Lipophilicity/Hydrophilicity Ratio Governs Antibacterial Potency and Selectivity of Bifurcated Halogen Bond-Forming NBTIs” (Antibiotics, 2021)
